Where two headings read alike, the source gives them in different places. Each block holds one compound with its values, some of them ahead of it.
What was measured:
BRD4(BD1) = BRD4(BD1) (Homo sapiens (Human), UniProt O60885); test: BRD4 AlphaLisa binding assay; details: BRD4(BD1) 30 nM, H4-tetraacetyl peptide 200 nM; read-out: AlphaScreen IC50
Experimental: IC50 Measurements for Inhibitors Using BRD4 AlphaLisa Binding Assay
His/Flag epitope tagged BRD4 BD142-168 was cloned, expressed and purified to homogeneity. BRD4 binding and inhibition was assessed by monitoring the engagement of biotinylated H4-tetraacetyl peptide (Millipore #12-379) with the target using the AlphaLisa technology (Perkin-Elmer). Specifically, in a 384 well ProxiPlate BRD4(BD1) (30 nM final) was combined with peptide (200 nM final) in 40 mM HEPES (pH 7.0), 40 mM NaCl, 1 mM DTT, 0.01% (w/v) BSA, and 0.008% (w/v) Brij-35 either in the presence of DMSO (final 1.2% DMSO) or compound dilution series in DMSO. After 20 minute incubation at room temperature Alpha streptavidin donor beads and AlphaLisa anti-Flag acceptor beads were added to a final concentration of 10 ug/mL each. After three hours equilibration plates were read on an Envision instrument and IC50s calculated using a four parameter non-linear curve fit.

[1] = system: IL-6 secretion in LPS-stimulated THP-1 cells; test: Cell-based IL-6 quantification assay (ELISA, Mesoscale); details: LPS 4 μg/mL, 16 h, read-out: IL-6 Cellular EC50
Experimental: Cell-Based IL-6 Quantification Assay (ELISA, Mesoscale Assay):
100,000 THP-1 cells were seeded in RPMI1640-10% FBS in 96-well plates. LPS (E. Coli Invitrogen) in RPMI-10% FBS at a final concentration of 4 μg/mL was added to the wells and the cells are then incubated in the presence of various concentrations of compounds for 16 h. Plates are spun ([…], 5 min), an aliquot of 25 uL supernatant is transferred in to an ELISA plate (Mesoscale technology, MSD) and the detection of IL-6 is performed using manufacturer's instructions. The amount of cells in each well is assessed using CellTiter-Glo® (Promega). The ratio of ELISA value/CellTiter-Glo value is used to calculate the percent of inhibition of IL-6 secretion.

[2] = system: MYC mRNA in MV4:11 (AML) or Raji (Burkitt's lymphoma) cells; test: cMyc RNA quantification assay (QuantiGene); format: cell-based; details: MV4:11 or Raji cells, 4 h; read-out: MYC Cellular EC50
Experimental: cMyc RNA Quantification Assay (QuantiGene® Assay):
MV4:11 (AML) or Raji (Burkitt's lymphoma) cells were seeded in a 96-well plate and incubated in the presence of various concentrations of compounds for 4 h. Relative mRNA levels were quantitated by using QuantiGene 2.0 assay (Affymetrix) according to the manufacturer's recommendation. Signals were detected by using an Envision plate reader (Perkin-Elmer). Biological duplicates were averaged and normalized to vehicle (DMSO) control to calculate percent MYC mRNA levels.

[3] = system: MV4-11 lymphoblast cell subcutaneous xenograft; test: Tumor growth inhibition in MV4-11 subcutaneous xenograft mouse model; format: in vivo; details: female nude mice, all cohorts: 1.5-3 mg/kg SC BID/QD, 3-10 mg/kg PO QD (Table 3)
Experimental: This study investigated the effects of Compound 401 on tumor growth inhibition in an MV4-11 lymphoblast cell subcutaneous xenograft mouse model.
A total number of 120 female nude mice were purchased. These mice were allowed 3 days of acclimatization period before experiments started. The cell suspension was carried to the animal room in an ice box. Mice were implanted subcutaneously (s.c.) with 200 μL of 10×10^6 MV4-11 cells in 50% Matrigel in the right flank at the beginning of the study. All the mice were observed everyday to monitor the health and tumor size.
When tumors reached an average volume of 150-200 mm^3, 100 out of the 120 mice were selected based on their tumor volume and randomly assigned to 10 groups prior to dosing. Each group consisted of 10 tumor-bearing mice (n=10/group).
Tumor-bearing mice were treated with Compound 401 or vehicle, by subcutaneous injection (5 mL/kg) or oral dose (10 mL/kg) starting on the day after randomization for 29 days according to Table 3.
Mice were weighed at each dosing and recorded every day. Mice were observed closely for any overt signs of adverse, treatment-related side effects, which if any were recorded. […] Tumor size was measured three times a week in two dimensions using a caliper, and the tumor volume (V) was expressed in mm^3 using the formula: V=0.5 a×b^2 where a and b were the long and short diameters of the tumor, respectively. […]

H526 = test: In vitro cancer cell line growth inhibition (GI50); format: cell-based; details: Homo sapiens, NCI-H526; H526, Lung, 72 hours, resazurin
Experimental: (§1) Method for GI50 Determination
(§2) Adherent cells were plated in 96-well plates and the following day compound titrations were added to the cells. Suspensions cells were plated directly in 96-well plates containing compound titrations. Compound titrations were comprised of 9 two-fold dilutions. Cells were incubated for 72 hours before analysis of viability with resazurin. Viability relative to DMSO treated cells was plotted to determine the absolute GI50 values.

SU-DHL-10 = test: In vitro cancer cell line growth inhibition (GI50); format: cell-based; details: Homo sapiens, SU-DHL10; SU-DHL-10, DLBCL, 72 hours, resazurin
Experimental: as §1, §2

A549 = test: In vitro cancer cell line growth inhibition (GI50); format: cell-based; details: Homo sapiens; A549, Lung, 72 hours, resazurin
Experimental: as §1, §2

OCI-LY-19 = test: In vitro cancer cell line growth inhibition (GI50); format: cell-based; details: Homo sapiens, OCI-LY19; OCI-LY-19, DLBCL, 72 hours, resazurin
Experimental: as §1, §2

KMS11 = test: In vitro cancer cell line growth inhibition (GI50); format: cell-based; details: Homo sapiens, KMS-11; KMS11, Multiple myeloma, 72 hours, resazurin
Experimental: as §1, §2

DOHH2 = test: In vitro cancer cell line growth inhibition (GI50); format: cell-based; details: Homo sapiens, DOHH-2; DOHH2, DLBCL, 72 hours, resazurin
Experimental: as §1, §2

HT29 = test: In vitro cancer cell line growth inhibition (GI50); format: cell-based; details: Homo sapiens, HT-29; HT29, Colorectal, 72 hours, resazurin
Experimental: as §1, §2

THP-1 = test: In vitro cancer cell line growth inhibition (GI50); format: cell-based; details: Homo sapiens; THP-1, AML, 72 hours, resazurin
Experimental: as §1, §2

ZR-75-1 = test: In vitro cancer cell line growth inhibition (GI50); format: cell-based; details: Homo sapiens; ZR-75-1, Breast, 72 hours, resazurin
Experimental: as §1, §2

LP1 = test: In vitro cancer cell line growth inhibition (GI50); format: cell-based; details: Homo sapiens, LP-1; LP1, Multiple myeloma, 72 hours, resazurin
Experimental: as §1, §2

DB = test: In vitro cancer cell line growth inhibition (GI50); format: cell-based; details: Homo sapiens, DLBCL, 72 hours, resazurin
Experimental: as §1, §2

SU-DHL-8 = test: In vitro cancer cell line growth inhibition (GI50); format: cell-based; details: Homo sapiens; SU-DHL-8, DLBCL, 72 hours, resazurin
Experimental: as §1, §2

HT = test: In vitro cancer cell line growth inhibition (GI50); format: cell-based; details: Homo sapiens, DLBCL, 72 hours, resazurin
Experimental: as §1, §2

DLD-1 = test: In vitro cancer cell line growth inhibition (GI50); format: cell-based; details: Homo sapiens; DLD-1, Colorectal, 72 hours, resazurin
Experimental: as §1, §2

143B = test: In vitro cancer cell line growth inhibition (GI50); format: cell-based; details: Homo sapiens, Osteosarcoma, 72 hours, resazurin
Experimental: as §1, §2

WSU-DLCL-2 = test: In vitro cancer cell line growth inhibition (GI50); format: cell-based; details: Homo sapiens, WSUDLCL2; WSU-DLCL-2, DLBCL, 72 hours, resazurin
Experimental: as §1, §2

MV4-11 = test: In vitro cancer cell line growth inhibition (GI50); format: cell-based; details: Homo sapiens; MV4-11, AML, 72 hours, resazurin
Experimental: as §1, §2

SU-DHL-6 = test: In vitro cancer cell line growth inhibition (GI50); format: cell-based; details: Homo sapiens; SU-DHL-6, DLBCL, 72 hours, resazurin
Experimental: as §1, §2

H23 = test: In vitro cancer cell line growth inhibition (GI50); format: cell-based; details: Homo sapiens, NCI-H23; H23, Lung, 72 hours, resazurin
Experimental: as §1, §2

SU-DHL-4 = test: In vitro cancer cell line growth inhibition (GI50); format: cell-based; details: Homo sapiens; SU-DHL-4, DLBCL, 72 hours, resazurin
Experimental: as §1, §2

KARPAS 422 = test: In vitro cancer cell line growth inhibition (GI50); format: cell-based; details: Homo sapiens; KARPAS 422, DLBCL, 72 hours, resazurin
Experimental: as §1, §2

SU-DHL-5 = test: In vitro cancer cell line growth inhibition (GI50); format: cell-based; details: Homo sapiens; SU-DHL-5, DLBCL, 72 hours, resazurin
Experimental: as §1, §2

U2932 = test: In vitro cancer cell line growth inhibition (GI50); format: cell-based; details: Homo sapiens; U2932, DLBCL, 72 hours, resazurin
Experimental: as §1, §2

A2780 = test: In vitro cancer cell line growth inhibition (GI50); format: cell-based; details: Homo sapiens; A2780, Ovarian, 72 hours, resazurin
Experimental: as §1, §2

MOLM-13 = test: In vitro cancer cell line growth inhibition (GI50); format: cell-based; details: Homo sapiens; MOLM-13, AML, 72 hours, resazurin
Experimental: as §1, §2

OPM2 = test: In vitro cancer cell line growth inhibition (GI50); format: cell-based; details: Homo sapiens, OPM-2; OPM2, Multiple myeloma, 72 hours, resazurin
Experimental: as §1, §2

ML-2 = test: In vitro cancer cell line growth inhibition (GI50); format: cell-based; details: Homo sapiens; ML-2, AML, 72 hours, resazurin
Experimental: as §1, §2

SMILES: Cc1noc2c1-c1ccc(-c3cnn(C)c3)cc1C(c1ccc(Cl)cc1)=N[C@H]2CC(N)=O [Compound 400, 2-((4S)-6-(4-chlorophenyl)-1-methyl-8-(1-trideuteromethyl-1H-pyrazol-4-yl)-4H-benzo[c]isoxazolo[4,5-e]azepin-4-yl)-^15N-acetamide]
IC50 (BRD4(BD1)): 18 nM | EC50 [1]: 5 nM | EC50 [2]: 8 nM

SMILES: Cc1noc2c1-c1ccc(-c3cnn(C)c3)cc1C(c1ccc(Cl)cc1)=N[C@H]2CC(N)=O [Compound 401, 2-((4S)-6-(4-Chlorophenyl)-1-methyl-8-(1-methyl-1H-pyrazol-4-yl)-4H-benzo[c]isoxazolo[4,5-e]azepin-4-yl)acetamide]
tumor volume reduction [3]: Statistically significant reductions in tumor volumes | IC50 (BRD4(BD1)): 14 nM | GI50 (H526): 10 nM | GI50 (SU-DHL-10): 100 nM | GI50 (A549): 460 nM | GI50 (OCI-LY-19): 60 nM | GI50 (KMS11): 100 nM | GI50 (DOHH2): 60 nM | GI50 (HT29): 200 nM | GI50 (THP-1): 65 nM | GI50 (ZR-75-1): 300 nM | GI50 (LP1): 5 nM | GI50 (DB): 150 nM | GI50 (SU-DHL-8): 100 nM | GI50 (HT): 100 nM | GI50 (DLD-1): 480 nM | GI50 (143B): 230 nM | GI50 (WSU-DLCL-2): 45 nM | GI50 (MV4-11): 15 nM | GI50 (SU-DHL-6): 60 nM | GI50 (H23): 210 nM | GI50 (SU-DHL-4): 150 nM | GI50 (KARPAS 422): 20 nM | GI50 (SU-DHL-5): 325 nM | GI50 (U2932): 625 nM | GI50 (A2780): 90 nM | GI50 (MOLM-13): 90 nM | GI50 (OPM2): 10 nM | GI50 (ML-2): 60 nM | EC50 ([1]; Homo sapiens): 15 nM | EC50 [2]: 13 nM

SMILES: Cc1noc2c1-c1ccc(-c3cnn(C)c3)cc1C(c1ccc(Cl)cc1)=N[C@H]2CC(=O)N(C)C [Compound 402]
IC50 (BRD4(BD1)): 13 nM | EC50 ([1]; Homo sapiens): 7 nM | EC50 [2]: 23 nM

SMILES: Cc1ccc(-c2ccc3c(c2)C(c2ccc(Cl)cc2)=N[C@@H](CC(N)=O)c2onc(C)c2-3)cn1 [Compound 403]
IC50 (BRD4(BD1)): 28 nM | EC50 ([1]; Homo sapiens): 29 nM | EC50 [2]: 36 nM

Next, values leading:

IC50 (BRD4(BD1)): 270 nM | EC50 ([1]; Homo sapiens): 36 nM | EC50 [2]: 206 nM
SMILES: Cc1noc(-c2ccc3c(c2)C(c2ccc(Cl)cc2)=N[C@@H](CC(N)=O)c2onc(C)c2-3)n1 [Compound 404, 2-((4S)-6-(4-chlorophenyl)-1-methyl-8-(3-methyl-1,2,4-oxadiazol-5-yl)-4H-benzo[c]isoxazolo[4,5-e]azepin-4-yl)acetamide]

IC50 (BRD4(BD1)): 175 nM | EC50 ([1]; Homo sapiens): 420 nM | EC50 [2]: 833 nM
SMILES: Cc1noc2c1-c1ccc(-c3cnn(C)c3)cc1C(c1ccc(Cl)cc1)=N[C@H]2CC(=O)O [Compound 405]

Reference: patent US9493483B2, “Benzo [C] isoxazoloazepine bromodomain inhibitors and uses thereof” (Constellation Pharmaceuticals, Inc., priority 2012, dated 2016)
